According to PMC9365315 (ACS chemical neuroscience, 2022):

Assays:
EAE mice = test: Mechanical withdrawal thresholds; format: in vivo, mouse (C57BL/6, female); details: day 24 post-EAE induction; compound 5 and modafinil 10 mg/kg, Solu-Medrol 50 mg/kg p.o. days 1–10
[1] = tested on: RAW 264.7 mouse macrophages induced with LPS; test: Cytokine mRNA expression in LPS-induced RAW 264.7 macrophages; format: cell-based; details: 10 and 1 μM, 48 h, preliminary data

SMILES: NC(=O)C[S+]([O-])C(c1ccccc1)c1ccccc1 (racemic) [(±)-modafinil]
- Mechanical withdrawal threshold, front left paw (von Frey) (EAE mice): decreased reflex thresholds
- mRNA expression levels of TNF-α, IL-1β and IL-4Rα [1]: minimal ability to modulate
